Measured values published in the NIST ThermoML archive (doi:10.1021/je201334p).
± gives the expanded uncertainty stated by the source.

Key:
[1] = refractive index (Na D-line) (dimensionless); xn = mol fraction of the nth substance listed; settings: 101 kPa, Liquid, Standard Abbe refractometry
[2] = xn = mol fraction of the nth substance listed; settings: 101 kPa, Liquid; for speed of sound: Sing-around technique in a fixed-path interferometer; for mass density: Vibrating tube method

CCCC[n+]1cccc(C)c1.O=S(=O)([O-])C(F)(F)F [1-butyl-3-methylpyridinium trifluoromethanesulfonate] + O
Settings	mass density, 288.15 K [kg/m3]	mass density, 298.15 K [kg/m3]	mass density, 308.15 K [kg/m3]	refractive index, 288.15 K	refractive index, 298.15 K	refractive index, 308.15 K	speed of sound, 288.15 K [m/s]	speed of sound, 298.15 K [m/s]	speed of sound, 308.15 K [m/s]
[1], x2 = 0	–	–	–	1.46446 ± 0.00053	1.46155 ± 0.00053	1.45868 ± 0.00053	–	–	–
[1], x2 = 0.0794	–	–	–	1.46358 ± 0.00052	1.46073 ± 0.00053	1.45784 ± 0.00053	–	–	–
[1], x2 = 0.1517	–	–	–	1.46266 ± 0.00052	1.45982 ± 0.00052	1.45694 ± 0.00053	–	–	–
[1], x2 = 0.2502	–	–	–	1.46111 ± 0.00051	1.45822 ± 0.00052	1.45535 ± 0.00052	–	–	–
[1], x2 = 0.3515	–	–	–	1.4591 ± 0.0005	1.45623 ± 0.00051	1.45331 ± 0.00053	–	–	–
[1], x2 = 0.4528	–	–	–	1.45651 ± 0.00049	1.45363 ± 0.00051	1.45069 ± 0.00053	–	–	–
[1], x2 = 0.5628	–	–	–	1.45257 ± 0.00047	1.44968 ± 0.00051	1.44673 ± 0.00054	–	–	–
[1], x2 = 0.6561	–	–	–	1.4477 ± 0.00045	1.44482 ± 0.0005	1.44183 ± 0.00056	–	–	–
[1], x2 = 0.7494	–	–	–	1.44008 ± 0.00042	1.43724 ± 0.0005	1.43429 ± 0.00062	–	–	–
[1], x2 = 0.8383	–	–	–	1.42747 ± 0.00043	1.42474 ± 0.00049	1.42192 ± 0.0008	–	–	–
[1], x2 = 0.9201	–	–	–	1.40357 ± 0.00049	1.40118 ± 0.00047	1.39863 ± 0.00085	–	–	–
[1], x2 = 0.9603	–	–	–	1.37998 ± 0.00069	1.37782 ± 0.00046	1.3757 ± 0.001	–	–	–
[2], x2 = 0	1287.07 ± 0.61	1279.41 ± 0.6	1271.8 ± 0.59	–	–	–	1436.1 ± 1.4	1412.3 ± 1.4	1389.6 ± 1.4
[2], x2 = 0.0794	1285.23 ± 0.55	1277.62 ± 0.54	1269.98 ± 0.53	–	–	–	1439.2 ± 1.3	1415.5 ± 1.3	1392.5 ± 1.3
[2], x2 = 0.1517	1283.28 ± 0.5	1275.63 ± 0.49	1267.96 ± 0.48	–	–	–	1442.3 ± 1.3	1418.7 ± 1.3	1395.8 ± 1.3
[2], x2 = 0.2502	1279.99 ± 0.43	1272.28 ± 0.43	1264.58 ± 0.42	–	–	–	1447.7 ± 1.2	1424.3 ± 1.2	1401.5 ± 1.2
[2], x2 = 0.3515	1275.76 ± 0.37	1268 ± 0.37	1260.24 ± 0.36	–	–	–	1454.3 ± 1.2	1431.2 ± 1.2	1408.5 ± 1.2
[2], x2 = 0.4528	1270.21 ± 0.32	1262.4 ± 0.32	1254.58 ± 0.31	–	–	–	1463 ± 1.1	1440 ± 1.1	1417.4 ± 1.1
[2], x2 = 0.5628	1261.9 ± 0.27	1254.01 ± 0.27	1246.08 ± 0.27	–	–	–	1475.6 ± 1.1	1452.9 ± 1.1	1430.3 ± 1.1
[2], x2 = 0.6561	1251.55 ± 0.24	1243.59 ± 0.24	1235.57 ± 0.23	–	–	–	1489.9 ± 1.1	1467.6 ± 1	1445.3 ± 1
[2], x2 = 0.7494	1235.48 ± 0.21	1227.52 ± 0.21	1219.46 ± 0.21	–	–	–	1508.6 ± 1	1487.4 ± 1	1465.8 ± 1
[2], x2 = 0.8383	1208.29 ± 0.18	1200.56 ± 0.18	1192.69 ± 0.19	–	–	–	1530.4 ± 1	1512.5 ± 1	1493.4 ± 1
[2], x2 = 0.9201	1155.76 ± 0.15	1149.07 ± 0.14	1142.04 ± 0.16	–	–	–	1548.9 ± 1	1540.1 ± 1	1528.6 ± 1
[2], x2 = 0.9603	1103.57 ± 0.14	1098.18 ± 0.12	1092.3 ± 0.16	–	–	–	1553.2 ± 1	1553.5 ± 1	1550.4 ± 1

CCCCCCn1cc[n+](C)c1.N#CN=C=[N-] [1-hexyl-3-methylimidazolium dicyanamide] + O
Settings	mass density, 288.15 K [kg/m3]	mass density, 298.15 K [kg/m3]	mass density, 308.15 K [kg/m3]	refractive index, 288.15 K	refractive index, 298.15 K	refractive index, 308.15 K	speed of sound, 288.15 K [m/s]	speed of sound, 298.15 K [m/s]	speed of sound, 308.15 K [m/s]
[1], x2 = 0	–	–	–	1.50729 ± 0.00079	1.50415 ± 0.00079	1.501 ± 0.00079	–	–	–
[1], x2 = 0.0785	–	–	–	1.50599 ± 0.00075	1.50284 ± 0.00075	1.49962 ± 0.00076	–	–	–
[1], x2 = 0.1191	–	–	–	1.50525 ± 0.00073	1.5021 ± 0.00074	1.49894 ± 0.00074	–	–	–
[1], x2 = 0.2124	–	–	–	1.50333 ± 0.00069	1.50016 ± 0.0007	1.49698 ± 0.00071	–	–	–
[1], x2 = 0.3055	–	–	–	1.50096 ± 0.00065	1.4978 ± 0.00066	1.49462 ± 0.00068	–	–	–
[1], x2 = 0.4019	–	–	–	1.49784 ± 0.00061	1.49467 ± 0.00063	1.49131 ± 0.00065	–	–	–
[1], x2 = 0.5096	–	–	–	1.49312 ± 0.00057	1.48997 ± 0.00059	1.48679 ± 0.00063	–	–	–
[1], x2 = 0.6069	–	–	–	1.48721 ± 0.00051	1.48405 ± 0.00057	1.48083 ± 0.00064	–	–	–
[1], x2 = 0.7123	–	–	–	1.47716 ± 0.00046	1.474 ± 0.00055	1.47076 ± 0.00069	–	–	–
[1], x2 = 0.8067	–	–	–	1.46233 ± 0.00047	1.45924 ± 0.00053	1.4559 ± 0.00091	–	–	–
[1], x2 = 0.9031	–	–	–	1.43179 ± 0.00056	1.42902 ± 0.00049	1.42645 ± 0.001	–	–	–
[1], x2 = 0.9499	–	–	–	1.40179 ± 0.001	1.39945 ± 0.00048	1.39679 ± 0.0014	–	–	–
[2], x2 = 0	1034.76 ± 2.6	1028.56 ± 2.6	1022.4 ± 2.5	–	–	–	1713.4 ± 3.2	1687.7 ± 3.2	1662.7 ± 3.2
[2], x2 = 0.0785	1034.48 ± 2.2	1028.25 ± 2.2	1022.07 ± 2.2	–	–	–	1713.4 ± 3	1688.1 ± 3	1663.1 ± 3
[2], x2 = 0.1191	1034.31 ± 2	1028.07 ± 2	1021.88 ± 2	–	–	–	1713.8 ± 2.9	1688.3 ± 2.9	1663.3 ± 2.9
[2], x2 = 0.2124	1033.88 ± 1.6	1027.61 ± 1.6	1021.38 ± 1.6	–	–	–	1714.3 ± 2.6	1688.9 ± 2.6	1664 ± 2.6
[2], x2 = 0.3055	1033.38 ± 1.3	1027.08 ± 1.3	1020.81 ± 1.3	–	–	–	1715 ± 2.4	1689.7 ± 2.4	1664.8 ± 2.4
[2], x2 = 0.4019	1032.76 ± 0.99	1026.41 ± 0.97	1020.08 ± 0.96	–	–	–	1715.8 ± 2.1	1690.6 ± 2.1	1665.8 ± 2.1
[2], x2 = 0.5096	1031.9 ± 0.69	1025.46 ± 0.68	1019.04 ± 0.67	–	–	–	1717 ± 1.9	1692.1 ± 1.9	1667.6 ± 1.9
[2], x2 = 0.6069	1030.86 ± 0.48	1024.31 ± 0.47	1017.78 ± 0.46	–	–	–	1717.9 ± 1.6	1693.4 ± 1.6	1668.9 ± 1.6
[2], x2 = 0.7123	1029.08 ± 0.29	1022.4 ± 0.29	1015.71 ± 0.28	–	–	–	1717.1 ± 1.4	1693.2 ± 1.4	1669.1 ± 1.4
[2], x2 = 0.8067	1026.34 ± 0.17	1019.6 ± 0.17	1012.81 ± 0.16	–	–	–	1709.4 ± 1.3	1687.6 ± 1.3	1665.3 ± 1.3
[2], x2 = 0.9031	1020.46 ± 0.09	1014.13 ± 0.09	1007.62 ± 0.09	–	–	–	1672 ± 1.1	1659.1 ± 1.1	1644.5 ± 1.1
[2], x2 = 0.9499	1014.51 ± 0.06	1009.12 ± 0.07	1003.34 ± 0.07	–	–	–	1618.9 ± 1.1	1618.6 ± 1	1614.6 ± 1.1
